Data published in patent publication US12583851B2, “Heteroaryl-substituted pyrazine derivatives as pesticides” (Elanco Animal Health GmbH, priority 2019, dated 2026).

How the values were obtained:
Type in all cases: in vivo
[1] = system: adult engorged female ticks (Rhipicephalus microplus); assay: Rhipicephalus (Boophilus) microplus injection test; details: 168 h, 4 μg/animal, egg deposition after 7 days, read-out: efficacy (infertile eggs)
Protocol: Rhipicephalus (Boophilus) microplus—Injection Test
(§1) Solvent: dimethyl sulfoxide
To produce a suitable preparation of active compound, 10 mg of active compound are dissolved in 0.5 mL solvent, and the concentrate is diluted with solvent to the desired concentration.
Five adult engorged female ticks (Rhipicephalus microplus) are injected with 1 μL compound solution into the abdomen. The ticks are transferred into replica plates and incubated in a climate chamber.
After 7 days egg deposition of fertile eggs is monitored. Eggs where fertility is not visible are stored in a climate chamber till hatching after about 42 days. An efficacy of 100% means all eggs are infertile; 0% means all eggs are fertile.

[2] = system: adult unfed cat fleas (Ctenocephalides felis); assay: Ctenocephalides felis oral test; details: 48 h, 100 ppm in citrated cattle blood, after 2 days
Protocol: Ctenocephalides felis—Oral Test
as §1
To produce a suitable preparation of active compound, 10 mg of active compound are dissolved in 0.5 mL solvent, and the concentrate is diluted with citrated cattle blood to the desired concentration.
Approximately 20 adult unfed cat fleas (Ctenocephalides felis) are placed in a flea chamber whose top and bottom is covered with gauze. A chamber whose bottom is sealed with parafilm, is filled with the blood-compound solution and placed on top of the flea chamber, so that the fleas can suck the blood. The blood chamber is heated to 37° C. whereas the flea chamber is kept at room temperature.
After 2 days mortality in % is determined. 100% means all the fleas have been killed; 0% means none of the fleas have been killed.

[3] = system: adult brown dog ticks (Rhipicephalus sanguineus); assay: Rhipicephalus sanguineus in-vitro contact test, adult brown dog ticks; details: 48 h, after 48 hours, read-out: efficacy (ticks dead or moribund); for pest or weed control at 5 µg/cm2, 500 g/ha: 5 μg/cm^2 (=500 g/ha); for pest or weed control at 1 µg/cm2, 100 g/ha: 1 μg/cm^2 (=100 g/ha)
Protocol: Rhipicephalus sanguineus—In-Vitro Contact Tests with Adult Brown Dog Ticks
(§2) 9 mg compound is solved in 1 mL acetone and diluted with acetone to the desired concentration. 250 of the test solution is filled in 25 mL glass test tubes and homogeneously distributed on the inner walls by rotation and tilting on a shaking device (2 h at 30 rpm). With a compound concentration of 900 ppm, an inner surface of 44.7 cm^2 and a homogeneous distribution, a dose of 5 μg/cm^2 is achieved.
(§3) After the solvent has evaporated, each test tube is filled with 5-10 adult brown dog ticks (Rhipicephalus sanguineus), closed with a perforated lid and incubated in a lying position at room temperature and relative humidity. After 48 hours efficacy is determined. The ticks are patted on the ground of the tubes and are incubated on a heating plate at 45-50° C. for at most 5 minutes Immotile or uncoordinated moving ticks, which are not able to escape the heat by climbing upwards, are marked as dead or moribund.
An efficacy of 100% means all ticks are dead or moribund; 0% means no ticks are dead or moribund.

[4] = system: Rhipicephalus (Boophilus) microplus larvae (strain Parkhurst, resistant against synthetic pyrethroids); assay: Rhipicephalus (Boophilus) microplus in-vitro contact test, larval cattle tick; details: after 48 hours, read-out: efficacy (larvae dead or moribund); for pest or weed control at 1 µg/cm2, 100 g/ha: 1 μg/cm^2 (=100 g/ha); for pest or weed control at 5 µg/cm2, 500 g/ha: 5 μg/cm^2 (=500 g/ha)
Method in brief: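 Pyrethroid-resistant larvae (strain Parkhurst), 20–50 per tube, exposed by contact to a dried acetone film of compound (5 μg/cm² at 900 ppm) for 48 h at 27 °C and 85% humidity. Percent dead or moribund larvae scored from negative geotactic behaviour.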

[5] = system: adult cat fleas (Ctenocephalides felis); assay: Ctenocephalides felis in-vitro contact test, adult cat flea; details: after 48 hours, read-out: efficacy (fleas dead or moribund); for pest or weed control at 1 µg/cm2, 100 g/ha: 1 μg/cm^2 (=100 g/ha); for pest or weed control at 5 µg/cm2, 500 g/ha: 5 μg/cm^2 (=500 g/ha)
Protocol: Ctenocephalides felis—In-Vitro Contact Tests Adult Cat Flea
as §2, with “1 ml” for “1 mL”, “250 μL” for “250”
as §3, with “cat fleas (Ctenocephalides felis),” for “brown dog ticks (Rhipicephalus sanguineus),”, “fleas” for “ticks”, “fleas,” for “ticks,”
An efficacy of 100% means all fleas are dead or moribund; 0% means no fleas are dead or moribund.

[6] = system: fall armyworm larvae (Spodoptera frugiperda); assay: Spodoptera frugiperda spray test; details: 168 h, maize leaf sections, after 7 days
Method in brief: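 Percent larval kill read at day 7, from 0% (no caterpillars dead) to 100% (all dead). Larvae were placed on dried Zea mays leaf discs previously sprayed with test preparations made from an acetone/DMF solution diluted in 1000 ppm emulsifier-containing water.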

[7] = system: larvae of the banded cucumber beetle (Diabrotica balteata); assay: Diabrotica balteata spray test; details: 168 h, after 7 days, read-out: efficacy (seedling growth); for pest or weed control at 6.4 µg/disc, 20 g/ha: 20 g/ha (=6.4 μg/well); for pest or weed control at 32 µg/disc, 100 g/ha: 100 g/ha (=32 μg/well)
Method in brief: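 Efficacy was read 7 days after infesting each unit with 10–20 banded cucumber beetle larvae, as % of seedlings growing like untreated, uninfested controls. Before infestation, wheat seeds germinated 1 day on agar (5 per well) were sprayed with the active ingredient. The active was formulated in acetone/DMF and diluted in water containing emulsifier.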

[8] = system: larvae of the southern green stink bug (Nezara viridula); assay: Nezara viridula spray test; details: 96 h, 500 g/ha, barley plants, after 4 days
Protocol: Nezara viridula—Spray Test
Solvent: 78.0 parts by weight of acetone • • 1.5 parts by weight of dimethylformamide
(§4) Emulsifier: alkylarylpolyglycol ether
(§5) To produce a suitable preparation of active compound, 1 part by weight of active compound is mixed with the stated amount of solvent, and the concentrate is diluted with water, containing an emulsifier concentration of 1000 ppm, to the desired concentration. Further test concentrations are prepared by dilution with emulsifier containing water.
Barley plants (Hordeum vulgare) infested with larvae of the southern green stink bug (Nezara viridula) are sprayed with a test solution containing the desired concentration of the active ingredient.
After 4 days mortality in % is determined. 100% means all the stink bugs have been killed; 0% means none of the stink bugs have been killed.

[9] = system: green peach aphid (Myzus persicae); assay: Myzus persicae spray test; details: foliar, 120 h, Chinese cabbage leaf disks, after 5 days
Protocol: Myzus persicae—Spray Test
Solvent: 78.0 parts by weight acetone • 1.5 parts by weight dimethylformamide
as §4
as §5, with “solvents” for “solvent,”, “and” for “and the concentrate”
Chinese cabbage (Brassica pekinensis) leaf disks infected with all instars of the green peach aphid (Myzus persicae), are sprayed with a preparation of the active ingredient of the desired concentration.
After 5 days mortality in % is determined. 100% means all aphids have been killed and 0% means none of the aphids have been killed.

SMILES | pest or weed control at 0.004 mg [1] [%] | mortality at 100 ppm [2] [%] | pest or weed control at 5 µg/cm2, 500 g/ha [3] [%] | pest or weed control at 1 µg/cm2, 100 g/ha [4] [%] | pest or weed control at 5 µg/cm2, 500 g/ha [4] [%] | pest or weed control at 1 µg/cm2, 100 g/ha [5] [%] | pest or weed control at 5 µg/cm2, 500 g/ha [5] [%] | mortality at 100 g/ha [6] [%] | pest or weed control at 6.4 µg/disc, 20 g/ha [7] [%] | pest or weed control at 32 µg/disc, 100 g/ha [7] [%] | mortality at 500 g/ha [8] [%] | pest or weed control at 1 µg/cm2, 100 g/ha [3] [%] | mortality at 100 g/ha [9] [%]
CC(NC(=O)c1cncc(C(F)(F)F)c1)c1nccnc1-c1nccs1 (racemic) [Example I-2, (rac)-N-(1-(3-(Thiazol-2-yl)pyrazin-2-yl)ethyl)-5-(trifluoromethyl)nicotinamide] | 100 | 90 | 100 | – | – | – | – | – | – | – | – | – | –
CC(NC(=O)c1cc(C(F)(F)F)cc(C(F)(F)F)c1)c1nccnc1-c1ncc(C(=O)N(C)CC(F)(F)F)s1 (racemic) [Example I-65, (rac)-2-(3-{1-[3,5-Bis(trifluoromethyl)benzamido]ethyl}pyrazin-2-yl)-N-methyl-N-(2,2,2-trifluoroethyl)-1,3-thiazole-5-carboxamide] | 80 | 80 | 80 | 100 | 100 | 100 | 100 | 100 | – | – | – | – | –
CC(NC(=O)c1cc(Cl)cc(S(C)(=O)=O)c1)c1nccnc1-n1cc(C(F)(F)F)cn1 (racemic) [Example I-93, (rac)-3-Chloro-5-(methanesulfonyl)-N-[1-{3-[4-(trifluoromethyl)-1H-pyrazol-1-yl]pyrazin-2-yl}ethyl]benzamide] | – | – | 80 | 100 | 100 | – | – | 100 | 100 | 100 | 100 | – | –
CC(NC(=O)c1cc(Cl)cc(S(C)(=O)=O)c1)c1nccnc1-n1cc(Cl)cn1 (racemic) [Example I-99, (rac)-3-Chloro-N-{1-[3-(4-chloro-1H-pyrazol-1-yl)pyrazin-2-yl]ethyl}-5-(methanesulfonyl)benzamide] | – | – | – | – | – | – | – | – | – | – | 100 | – | –
CC(NC(=O)c1cc(C(F)(F)F)cc(C(F)(F)F)c1)c1nccnc1-n1cc(C(=O)N(C)CC2CC2)cn1 (racemic) [Example I-131, (rac)-1-(3-{1-[3,5-Bis(trifluoromethyl)benzamido]ethyl}pyrazin-2-yl)-N-(cyclopropylmethyl)-N-methyl-1H-pyrazole-4-carboxamide] | – | – | 80 | 100 | 100 | – | – | 100 | 100 | 100 | 100 | 80 | –
CC(NC(=O)c1cc(Cl)cc(OC(F)(F)F)c1)c1nccnc1-n1cc(C(=O)N(C)CC2CC2)cn1 (racemic) [Example I-133, (rac)-1-(3-{1-[3-Chloro-5-(trifluoromethoxy)benzamido]ethyl}pyrazin-2-yl)-N-(cyclopropylmethyl)-N-methyl-1H-pyrazole-4-carboxamide] | – | – | 100 | 100 | 100 | 100 | 100 | 100 | 100 | 100 | 100 | 100 | –
CC(NC(=O)c1cc(C(F)(F)F)cc(C(F)(F)F)c1)c1nccnc1-n1cc(C(=O)N(C)C2CC2)cn1 (racemic) [Example I-139, (rac)-1-(3-{1-[3,5-Bis(trifluoromethyl)benzamido]ethyl}pyrazin-2-yl)-N-cyclopropyl-N-methyl-1H-pyrazole-4-carboxamide] | – | – | – | 100 | 100 | – | – | 100 | – | 80 | 100 | – | –
CC(NC(=O)c1cc(Cl)cc(C(F)(F)F)c1)c1nccnc1-c1ccc(Cl)cn1 (centres unmarked) [Example I-24] | 100 | 100 | – | 90 | 90 | – | – | 100 | 100 | 100 | – | – | –
COc1ccc(-c2nccnc2C(C)NC(=O)c2cc(Cl)cc(OC(F)(F)F)c2)nc1 (centres unmarked) [Example I-28] | – | – | – | 90 | 80 | – | – | – | 100 | 80 | – | – | 90
CCN(C)C(=O)c1cnc(-c2nccnc2[C@@H](C)NC(=O)c2cc(C(F)(F)F)cc(C(F)(F)F)c2)s1 [Example I-84, 2-(3-{(1R)-1-[3,5-bis(trifluoromethyl)benzamido]ethyl}pyrazin-2-yl)-N-ethyl-N-methyl-1,3-thiazole-5-carboxamide] | – | – | – | – | – | – | – | – | – | – | – | – | 90
CCN(C)C(=O)c1cnc(-c2ncc(C)nc2[C@H](C)NC(=O)c2cc(C(F)(F)F)cc(C(F)(F)F)c2)s1 [Example I-155, (+)-2-(3-{(1S)-1-[3,5-Bis(trifluoromethyl)benzamido]ethyl}-5-methylpyrazin-2-yl)-N-ethyl-N-methyl-1,3-thiazole-5-carboxamide] | – | – | – | – | – | – | – | 100 | 100 | 100 | 100 | – | –
